Assays:
[1] = test system: CCL17 release in HaCaT cells; assay: CCL17 release induced by TNF-α/IFN-γ stimulation in HaCaT cells (ELISA); assay type: cell-based; conditions: various concentrations; TNF-α and IFN-γ 10 ng/ml each, 24 hours; FIG. 5
Description: (§1) Epidermal cells (HaCaT cells) were purchased from Thermo Fisher Scientific (USA). HaCaT cells were cultured in a DMEM medium (Dulbecco's Modified Eagle's medium (high glucose), Hyclone, USA) containing 10% fetal bovine serum (FBS) and 1% penicillin/streptomycin at 37° C. in a 5% CO2 incubator.
(§2) In order to evaluate the inhibitory effects against IL-6, CCL17, and CCL22 release induced by TNF-α and IFN-γ stimulation in HaCaT cells, an epidermal cell model for the itching associated with the skin barrier, we used a IL-6 ELISA kit (Abcam, UK), a CCL17 ELISA kit (R&D Systems, USA), and a CCL22 ELISA kit (R&D Systems, USA). HaCaT cells were seeded at 1×10^6 cells/well in each well of a coated 6-well plate for cell culture and cultured in a DMEM medium containing 10% FBS and 1% antibiotics (penicillin/streptomycin). After 24 hours, the existing medium was removed. The cells were washed with PBS and a DMEM medium without FBS was added thereto. After N-nonyldeoxynojirimycin was treated at various concentrations, the cells were cultured for 1 hour at 37° C. in a 5% CO2 incubator. The cells were treated with TNF-α and IFN-γ at 10 ng/ml each and then incubated for an additional 24 hours. The cell culture mixture was collected in a 1.5 ml tube and then centrifuged at 2,000 rcf. […] After completion of the reaction, the absorbance was measured at 450 nm using a microplate reader. […]

[2] = test system: CCL22 release in HaCaT cells; assay: CCL22 release induced by TNF-α/IFN-γ stimulation in HaCaT cells (ELISA); assay type: cell-based; conditions: various concentrations; TNF-α and IFN-γ 10 ng/ml each, 24 hours; FIG. 6
Description: as §1, §2

[3] = test system: IL-6 release in HaCaT cells; assay: IL-6 release induced by TNF-α/IFN-γ stimulation in HaCaT cells (ELISA); assay type: cell-based; conditions: various concentrations; TNF-α and IFN-γ 10 ng/ml each, 24 hours; FIG. 4
Description: as §1, §2

RBL-2H3 cells = assay: β-hexosaminidase release induced by PMA/A23187 stimulation (degranulation) in RBL-2H3 cells; assay type: cell-based
Description: as §1, with “Mast” for “Epidermal”, “(RBL-2H3” for “(HaCaT”, “ATCC (American Type Culture Collection, USA). RBL-2H3” for “Thermo Fisher Scientific (USA). HaCaT”
In order to evaluate the inhibitory effects against degranulation of RBL-2H3 cells, β-hexosaminidase release was measured for various compounds. Specifically, the cultured RBL-2H3 cells were seeded at 2×10^5 cells/well in each well of a 24-well plate for cell culture and cultured in a DMEM medium containing 10% FBS and 1% penicillin/streptomycin. After 24 hours, the existing medium was removed. The cells were washed twice with an extracellular buffer (5 mM KCl, 119 mM NaCl, 25 mM PIPES, 0.4 mM MgCl2, 1 mM CaCl2), 40 mM NaOH, 5.6 mM glucose, 0.1% BSA, pH 7.2) and the medium was replaced with the extracellular buffer. […] After the reaction was terminated by adding a stop solution (0.1 M carbonate buffer, pH 10), the absorbance was measured at 405 nm using a microplate reader.
The β-hexosaminidase release was measured in the same manner as in Example 2, except that N-nonyldeoxynojirimycin was treated at various concentrations (1 to 200 μM).

hepatic glycogenolysis = conditions: in vivo; cited from earlier work
glucosidase = conditions: cited from earlier work
[4] = test system: PGE2 release in RBL-2H3 cells; assay: PGE2 release induced by PMA/A23187 stimulation in RBL-2H3 cells (ELISA); assay type: cell-based; conditions: 1 to 40 μM; 50 nM PMA and 1 μM A23187 for 30 minutes; FIG. 3
Description: as §1, with “Mast” for “Epidermal”, “(RBL-2H3” for “(HaCaT”, “ATCC (American Type Culture Collection, USA). RBL-2H3” for “Thermo Fisher Scientific (USA). HaCaT”
In order to evaluate the inhibitory effects against […] (PGE2) release of RBL-2H3 cells according to the treatment of N-nonyldeoxynojirimycin, an enzyme-linked immunosorbent assay (ELISA) was performed using a PGE2 ELISA kit (R&D Systems, USA). Specifically, the cultured RBL-2H3 cells were seeded at 1×10^6 cells/well in each well of a 6-well plate for cell culture and cultured in the same manner as in Example 2. After 24 hours, the existing medium was removed. The cells were washed with PBS and a DMEM medium without FBS was added thereto. After N-nonyldeoxynojirimycin was treated at various concentrations (1 to 40 μM), the cells were cultured for 1 hour at 37° C. in a 5% CO2 incubator. The cells were treated with 50 nM of PMA and 1 μM of A23187 and incubated for an additional 30 minutes. The cell culture mixture was collected in a 1.5 ml tube and then centrifuged at 2,000 rcf. The supernatant thereof was subject to the ELISA analysis using a PGE2 ELISA kit (R&D Systems, USA). After completion of the reaction, the absorbance was measured at 450 nm using a microplate reader.

Question: With `CCCCCCCCCN1C[C@H](O)[C@@H](O)[C@H](O)[C@H]1CO` [N-nonyldeoxynojirimycin] as the molecule, how does the “inhibitory effect against CCL17 release” value [1] read?
Answer: inhibited the IL-6, CCL17, and CCL22 releases

Question: And the “inhibitory effect against CCL22 release” value [2]?
Answer: inhibited the IL-6, CCL17, and CCL22 releases

Question: What about the “inhibitory effect against IL-6 release” value [3] of the same molecule?
Answer: inhibited the IL-6, CCL17, and CCL22 releases

Question: And the “inhibitory effect against β-hexosaminidase release according to treatment concentration” value (RBL-2H3 cells; 1 to 200 μM, PMA/A23187 stimulation, FIG. 2)?
Answer: inhibits the β-hexosaminidase release in a concentration-dependent manner

Question: And the “inhibitory effect against β-hexosaminidase release” value (RBL-2H3 cells; test material 20 μM, 1 hour, then 50 nM PMA and 1 μM A23187 for 30 minutes, FIG. 1)?
Answer: remarkably inhibited the β-hexosaminidase release compared to other alkaloid analogues

Question: What about the “inhibition of hepatic glycogenolysis” value (hepatic glycogenolysis) of the same molecule?
Answer: known to inhibit hepatic glycogenolysis in vivo

Question: And the glucosidase inhibitory activity (glucosidase)?
Answer: has a glucosidase inhibitory activity

Question: What about the “inhibitory effect against PGE2 release” value [4] of the same molecule?
Answer: inhibited the PGE2 release in a concentration-dependent manner
